Patent US8541200B2, “Cleavage of fusion proteins using Granzyme B protease” (Hoffmann-La Roche Inc., priority 2003, dated 2013)
Values joined by “and” are separate entries in the source; they are usually repeats but may differ in a detail not shown here. Equal values may be shown once.

Legend:
Type in all cases: biochemical
[1] = Colorimetric Granzyme B activity assay with Ac-IEPD-pNA (absorbance at 405 nm)
Description: GrB-H6 activity was measured using the following mix: 500 μl buffer, 2 μl 100 mM Ac-IEPD-pNA, and 5 μl GrB-H6.
Recombinant self-activating human Granzyme B derivatives IEPD-GrB-H6 and IEAD-GrB-H6 were produced as described in Example 2 by using the expression vectors pT7-IEPD-GrB-H6 and pT7-IEAD-GrB-H6 described in Example 1. The IEAD-GrB-H6 and IEPD-GrB-H6 proteins were eluted from the SP Sepharose columns and stored at 4° C. for 2 days before the activity of the respective top fractions were determined by using a colorimetric assay. For this purpose the following was mixed: 500 μl buffer (100 mM HEPES pH 7.5), 2 μl 100 mM Ac-IEPD-pNA, and 5 μl protein solution. The change in absorption was then determined at 405 nm during 3 min. The activity was further determined after additional incubation for 1 and 2 days at 4° C.
The activity of the activated and purified GrB-H6 was measured in different buffers using the Ac-IEPD-pNA substrate: 500 μl buffer, 2 μl 100 mM Ac-IEPD-pNA, and 5 μl GrB-H6. The ΔOD405/min was calculated from the first 0.75 min unless otherwise noted.

[2] = Steady state kinetic parameters KM and kcat, Lineweaver-Burk plot; conditions: 100 mM HEPES pH 7.75; 20 nM protease
Description: To estimate the steady state kinetic parameters KM and kcat, the same colorimetric assay as described above was used with a total volume of 500 μl in the assay cuvette. The assay buffer was 100 mM HEPES pH 7.75, and both GrB-H6 and GrB-H6 C228F were used in a concentration of 20 nM in each measurement. To construct a Lineweaver-Burk plot the following substrate concentrations were used: 5, 40, 150, 300, and 600 μM.

[3] = Specificity on chromogenic substrates; conditions: 400 μM substrate, 1 μg protease, 100 mM HEPES pH 7.75; normalized to Ac-IEPD-pNA = 100%
Description: The activity assay was carried out in 500 μl 100 mM HEPES pH 7.75 with a substrate concentration of 400 μM and 1 μg protease added for each measurement. All measurements were done at 23° C. and in triplicate, and the activities obtained were normalized by setting the activity measured on Ac-IEPD-pNA to 100%.
The specificity of both the GrB-H6 and the GrB-H6 C228F protease was examined using the chromogenic substrates Ac-LEED-pNA, Ac-VEID-pNA, Ac-YVAD-pNA, and Ac-DEVD-pNA, in addition to the Ac-IEPD-pNA substrate applied in Example 4. The activity assay was again carried out in 500 μl 100 mM HEPES pH 7.75 with a substrate concentration of 400 μM. For each measurement 1 μg of protease was added to the assay cuvette. All measurements were done in triplicate, and the activities obtained were normalized by setting the activity measured on Ac-IEPD-pNA to 100%.

GrB-H6: activated human Granzyme B with C-terminal hexa-His tag, from cleavage/activation of pro-IEGR-GrB-H6 by FXa
Activity (ΔOD405/min) ([1]; 50 mM NaCl, 25 mM Tris-HCl pH 7.4, 0.5 μg GrB-H6): 0.1948 ΔOD405/min
Activity (ΔOD405/min) ([1]; 100 mM HEPES pH 7.2, 0.5 μg GrB-H6): 0.1970 ΔOD405/min
Activity (ΔOD405/min) ([1]; 100 mM HEPES pH 7.4 + 50 mM KCl, 0.5 μg GrB-H6): 0.2167 ΔOD405/min
Activity (ΔOD405/min) ([1]; 100 mM HEPES pH 7.4 + 50 mM NaCl, 0.5 μg GrB-H6): 0.1993 ΔOD405/min and 0.1938 ΔOD405/min
Activity (ΔOD405/min) ([1]; 100 mM HEPES pH 7.4, 0.5 μg GrB-H6): 0.2273 ΔOD405/min and 0.2328 ΔOD405/min
Activity (ΔOD405/min) ([1]; 100 mM HEPES pH 7.5 + 5 mM Ca^2+, 0.5 μg GrB-H6): 0.2425 ΔOD405/min
Activity (ΔOD405/min) ([1]; 100 mM HEPES pH 7.5, 0.5 μg GrB-H6): 0.2350 ΔOD405/min
Activity (ΔOD405/min) ([1]; 100 mM KCl, 50 mM Tris-HCl pH 7.4, 0.5 μg GrB-H6): 0.1662 ΔOD405/min
Activity (ΔOD405/min) ([1]; 100 mM NaCl, 50 mM Tris-HCl pH 7.4, 0.5 μg GrB-H6): 0.1682 ΔOD405/min
GrB activity, before FXa removal ([1]; 100 mM NaCl, 50 mM Tris-HCl pH 8.0): 0.1401 ΔOD405/min
GrB activity, after FXa removal ([1]; 100 mM NaCl, 50 mM Tris-HCl pH 8.0, top fraction of SP Sepharose eluate): 0.2213 ΔOD405/min
Activity (ΔOD405/min) ([1]; TN pH 7.0, 1 μg GrB-H6): 0.2794 ΔOD405/min
Activity (ΔOD405/min) ([1]; TN pH 7.4 + 5 mM Ca^2+, 0.5 μg GrB-H6): 0.1401 ΔOD405/min
Activity (ΔOD405/min) ([1]; TN pH 7.4 + 5 mM Mg^2+, 0.5 μg GrB-H6): 0.1491 ΔOD405/min
Activity (ΔOD405/min) ([1]; TN pH 7.4 + 0.1% TWEEN20, 0.2 μg GrB-H6, (3 min)): 0.0303 (3 min) ΔOD405/min
Activity (ΔOD405/min) ([1]; TN pH 7.4 + 0.1% TWEEN20, 0.5 μg GrB-H6): 0.0887 ΔOD405/min
Activity (ΔOD405/min) ([1]; TN pH 7.4, 0.2 μg GrB-H6, (3 min)): 0.0245 (3 min) ΔOD405/min
Activity (ΔOD405/min) ([1]; TN pH 7.4, 0.5 μg GrB-H6): 0.0835 ΔOD405/min and 0.1082 ΔOD405/min
Activity (ΔOD405/min) ([1]; TN pH 7.4, 1 μg GrB-H6): 0.2624 ΔOD405/min and 0.2930 ΔOD405/min
Activity (ΔOD405/min) ([1]; TN pH 8.1, 1 μg GrB-H6, (1 min)): 0.2213 (1 min) ΔOD405/min
best buffer for activity of the buffers evaluated ([1]; buffers of Table 6): 100 mM HEPES pH 7.4-7.5
Km [2]: 66.9 µM
kcat [2]: 5.03 s⁻¹
specificity on chromogenic substrates [3]: at least as specific as the GrB-H6 C228F protease
